# From US20260242320A1, “USE OF CANNABIDIOL DERIVATIVE IN PREPARATION OF MEDICAMENT” (priority 2023, published 2026)
# Assays:
# BV-2 cellular viability = assay: Cell viability / cytotoxicity by crystal violet staining; assay type: cell-based
# Method: 100 μL of culture medium were transferred to a black 96-well plate for later use. Following removal of old culture medium, 100 μL of 4% paraformaldehyde was added for fixation. Fixation was performed for 5 minutes. Paraformaldehyde was then removed, and 100 μL of 0.05% crystal violet was added. The resultant mixture was incubated for 15 minutes, after which time crystal violet was removed and the mixture was slowly rinsed with water three times. Next, 150 μL of ethanol was added, and the mixture was incubated for 15 minutes. After incubation, the absorbance was measured at 540 nm using a spectrophotometer. Viability (%)=100× Fluorescence values of the dosing group/Fluorescence values of the blank group.
# Cell viability was determined by crystal violet staining. Briefly, BV-2 cells were treated as indicated in the NO assay. The media was removed, and then 4% paraformaldehyde was added to fix the cells for 5 min. Cells were stained with 100 μL 0.05% crystal violet for 15 min and washed with water 2 times. Next, 150 μL of ethanol was added to each well, and the plate was incubated for 15 min at room temperature. Absorbance at 540 nm was measured using a SYNERGY H1 Microplate Reader.
# [1] = Body weight during 7 days of administration; assay type: in vivo, mice; details: during drug treatment vs vehicle
# Method: Mice were intraperitoneally injected with 20 mg/kg CIAC001 or 10 mg/kg THC once daily. After 1 h, the mice were anesthetized with isoflurane by a small animal anesthesia machine (R500IE, RWD Life Science Co) on day 2 and day 5. The respiratory rate of mice was recorded three times within 20 s. The weights of mice were recorded every day.
# [2] = target: T1, endogenous PKM2 in BV-2 cell lysate (Mus musculus, UniProt P52480); assay: Cellular thermal shift assay (CETSA); assay type: binding
# T1 construct: endogenous in cells; host or cells: BV-2 cells
# Method: For CETSA experiments, BV-2 cells were seeded at a density of 4×10^5 cells/mL in 10 cm petri dishes. After 24 h, the medium was removed, and cells were washed with cold PBS (3.0 mL) 3 times and harvested by scraping. Cells were then isolated by centrifugation (1000 g, 5 min, 4° C.) and resuspended in cell lysis buffer (P0013, Beyotime Biotechnology) with the 1% protease inhibitor cocktail and then incubated on ice for 10 min. The lysates were centrifuged (12,000 g, 15 min, 4° C.), and the supernatants were collected. CIAC001 (50 μM) or vehicle control was incubated with BV-2 cell lysate supernatant for 2 h at 20° C. The lysate supernatants were divided into 60 μL each in microtubes. The lysates were heated at different temperatures (37-72° C.) for 5 min on a Long Gene A200 thermal cycler and cooled down at 25° C. for another 3 min. The samples were stored on ice until centrifugation (20,000 g, 4° C., 20 min) to remove precipitates. The lysate supernatants were denatured in 2× Laemmli sample buffer at 100° C. for 8 min for western blotting with the PKM2 antibody
# PKM2 protein = PKM2 protein (Homo sapiens, UniProt P14618); assay: Fluorescence titration of purified PKM2; assay type: binding; details: PKM2 0.5 μM
# Method: PKM2 protein (0.5 μM) was titrated with increasing concentrations of CIAC001, and the fluorescence intensity (λex 280 nm; λem 337 nm) was recorded by a fluorescence spectrophotometer (Cary Eclipse, Agilent Technologies Inc., USA). Appropriate controls were subtracted from the spectra obtained from the samples. The data were fitted by the nonlinear least squares method using Equation 8, derived from equations 1-7.
# Because [LP2]^3 is far less than (LT+PT)×[LP2]^2, Equation 6 can be simplified as Equation 7, allowing derivation of Equation 8: […]
# where F is the measured fluorescence; F0 is the initial fluorescence of PKM2 in the absence of CIAC001; FPL is an adjustable parameter for protein-ligand complex molar fluorescence; KD is the dissociation constant; LT is the total concentration of CIAC001; and PT is the total PKM2 concentration. The stoichiometry n was fitted according to the equation […].
# CB1 Receptor = target: T2, CB1 Receptor (Homo sapiens, UniProt P21554); assay: cAMP measurement, forskolin-induced cAMP accumulation, CB1; assay type: cell-based; details: cAMP assay
# T2 construct: expressed in transfected cells; host or cells: GloSensor 22-F HEK293 cells
# Method: (§1) GloSensor 22-F HEK293 cells were transfected with plasmids encoding different receptors (CB1 and CB2). After 24 h, HEK293 cells were seeded at a density of 5×10^4 cells per well in 96-well plates and incubated for 8 h; then, the medium was removed, and 200 μL of serum-free DMEM medium containing 2% GloSensor cAMP substrate (Promega) was added. After 2 h incubation, the transfected cells were stimulated with different concentrations of ligands together with […]. The luminescence was recorded using a Multimode Plate Reader (En Vision, PerkinElmer).
# CB2 Receptor = target: T3, CB2 Receptor (Homo sapiens, UniProt P34972); assay: cAMP measurement, forskolin-induced cAMP accumulation, CB2; assay type: cell-based; details: cAMP assay
# T3 construct: expressed in transfected cells; host or cells: GloSensor 22-F HEK293 cells
# Method: as §1
# [3] = test system: 3×Tg Alzheimer's disease mice; assay: Anxiety tests in Alzheimer's disease model mice (high plus maze, open field); assay type: in vivo; details: i.p., 45 days
# Text: For Alzheimer's disease behavioral experiments (Morris water maze, open field experiment, novel object recognition, Y-maze, and elevated cross maze), triple transgenic mouse models (B6:129-Psen1tm1Mpm Tg (APPswe, tauP301L) 1Lfa/J, 3×Tg) were purchased from the Jax Laboratory in the United States. The wild-type mice (C57BL/6J, WT) were purchased from Beijing Vital River Laboratory Animal Technology Co., Ltd. After 45 days of intraperitoneal injection of CIAC001, all mice were subjected to subsequent behavioral experiments. In order to minimize the use of mice, the mice are first tested for sufficient physical strength and normal mental states. Only one behavioral experiment is conducted per day based on the following schedule: day 1: open field test; day 2-3: novel object recognition; day 3: elevated plus maze; day 4: Y-maze; day 5-13: Morris water maze.
# The elevated cross maze consisted of two intersecting open arms (25×5×0.5 cm) and two enclosed arms (25×5×16 cm) that were perpendicular to the open arms. A platform (5×5×0.5 cm) was placed in the center of the maze. […]
# At the beginning of the experiment, the mouse was placed in the center area of the elevated cross maze, facing one of the enclosed arms. […] A camera connected to a computer was used to capture the mouse's movements, and the number of entries and time spent in the open and enclosed arms were recorded. […]
# PKM2 = PKM2 (Mus musculus, UniProt P52480); assay: Pull-down with probes 19e/19f and western blotting
# PKM2, sequence (P52480 whole entry): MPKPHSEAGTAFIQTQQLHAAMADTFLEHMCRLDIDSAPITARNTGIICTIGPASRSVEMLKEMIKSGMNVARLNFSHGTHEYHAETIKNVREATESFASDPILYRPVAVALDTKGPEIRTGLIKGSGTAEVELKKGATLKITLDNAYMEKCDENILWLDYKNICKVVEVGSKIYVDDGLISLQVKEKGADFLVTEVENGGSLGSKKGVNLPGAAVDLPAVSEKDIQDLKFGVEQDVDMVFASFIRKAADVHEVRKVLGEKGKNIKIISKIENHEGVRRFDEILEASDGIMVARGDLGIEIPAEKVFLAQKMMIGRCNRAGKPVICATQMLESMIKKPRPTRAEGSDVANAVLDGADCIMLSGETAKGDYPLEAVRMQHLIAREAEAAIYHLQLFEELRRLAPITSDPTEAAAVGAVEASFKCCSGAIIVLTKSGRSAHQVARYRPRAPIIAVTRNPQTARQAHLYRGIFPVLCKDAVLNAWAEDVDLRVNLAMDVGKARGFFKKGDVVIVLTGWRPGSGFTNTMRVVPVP
# Method: The protein samples were separated by SDS-PAGE and transferred to PVDF membranes. The membranes were blocked with 5% nonfat dry milk for 1 h. The membranes were incubated with the corresponding primary antibody at 4° C. overnight and then washed with Tris-buffered saline with 0.1% Tween 20 (TBST) for 5 min each time and incubated for 1 h at room temperature with the secondary antibody-HRP conjugate. After washing with TBST, the membranes were developed using Super-Signal West Pico Chemiluminescent Substrate and visualized by a Tanon-5200 Multi. ImageJ was used for densitometric analysis.
# BV-2 cells were treated with the probe Compound 19e (5 μM) or CIAC001 (20 μM) for 2 h at 37° C.; then, cells were transferred on ice and irradiated with 365 nm UV light for 30 min. Cells were washed with 3 mL PBS twice and lysed by buffer containing 250 mM HEPES (pH=7.9), 1.5 M KCl, 5 mM EDTA, 0.5% v/v NP-40, and 1% v/v protease inhibitor cocktail. The cell lysate was centrifuged at 4° C. and 12,000 g for 10 min, and the protein concentration was adjusted to 1 mg/mL by the BCA assay kit. […]
# BV-2 cells were scraped with PBS; then, cells were lysed with buffer containing 250 mM HEPES (pH=7.9), 1.5 M KCl, 5 mM EDTA, 0.5% v/v NP-40, and 0.025% v/v protease inhibitor cocktail and incubated on ice for 30 min. […] The lysate was subjected to a click reaction as described above and analyzed by SDS-PAGE. […]
# PKM2 protein, sequence (P14618 whole entry, species assumed): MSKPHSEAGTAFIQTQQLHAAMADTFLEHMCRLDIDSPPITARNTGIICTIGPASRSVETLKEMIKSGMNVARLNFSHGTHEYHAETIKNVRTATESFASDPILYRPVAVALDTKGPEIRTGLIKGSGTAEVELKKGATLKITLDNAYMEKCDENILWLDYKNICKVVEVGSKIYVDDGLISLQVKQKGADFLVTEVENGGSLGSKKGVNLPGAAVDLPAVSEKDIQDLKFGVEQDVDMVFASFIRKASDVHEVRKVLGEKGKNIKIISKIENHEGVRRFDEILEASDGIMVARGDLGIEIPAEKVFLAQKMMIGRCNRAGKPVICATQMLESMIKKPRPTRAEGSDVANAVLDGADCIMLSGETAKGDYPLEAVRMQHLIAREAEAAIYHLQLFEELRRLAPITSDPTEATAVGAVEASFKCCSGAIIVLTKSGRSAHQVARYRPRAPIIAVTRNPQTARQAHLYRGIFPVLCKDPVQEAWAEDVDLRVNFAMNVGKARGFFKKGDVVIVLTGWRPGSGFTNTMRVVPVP
# T3 sequence (P34972 whole entry): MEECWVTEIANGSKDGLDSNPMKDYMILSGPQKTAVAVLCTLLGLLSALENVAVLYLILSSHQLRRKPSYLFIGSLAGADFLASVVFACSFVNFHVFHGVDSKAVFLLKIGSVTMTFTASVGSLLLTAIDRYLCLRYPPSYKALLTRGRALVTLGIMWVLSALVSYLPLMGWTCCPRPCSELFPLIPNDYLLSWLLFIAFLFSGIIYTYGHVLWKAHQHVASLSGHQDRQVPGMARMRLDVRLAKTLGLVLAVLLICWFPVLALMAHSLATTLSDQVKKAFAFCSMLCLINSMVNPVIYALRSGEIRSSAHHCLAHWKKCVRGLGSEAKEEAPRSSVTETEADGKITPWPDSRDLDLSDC
# T1 sequence (P52480 whole entry): as the sequence (P52480 whole entry) above
# T2 sequence (P21554 whole entry): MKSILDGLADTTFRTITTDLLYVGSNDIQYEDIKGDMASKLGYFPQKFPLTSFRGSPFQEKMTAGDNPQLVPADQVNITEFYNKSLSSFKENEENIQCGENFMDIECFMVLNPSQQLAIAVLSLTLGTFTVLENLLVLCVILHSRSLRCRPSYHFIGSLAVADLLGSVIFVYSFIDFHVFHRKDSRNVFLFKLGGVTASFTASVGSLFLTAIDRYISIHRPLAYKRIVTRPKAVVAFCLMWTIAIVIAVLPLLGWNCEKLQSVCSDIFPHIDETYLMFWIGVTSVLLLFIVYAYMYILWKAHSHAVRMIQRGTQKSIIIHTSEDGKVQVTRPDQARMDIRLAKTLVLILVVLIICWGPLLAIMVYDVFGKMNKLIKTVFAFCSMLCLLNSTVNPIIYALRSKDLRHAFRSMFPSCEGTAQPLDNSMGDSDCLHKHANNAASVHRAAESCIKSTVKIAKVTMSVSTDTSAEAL
smiles,measurement,setting,value
"C=C(C)[C@@H]1CCC(C)=C[C@H]1c1c(O)cc(C(C)n2nccn2)cc1O (stereo partly drawn) [CIAC001, (1′R,2′R)-4-(1-(2H-1,2,3-Triazol-2-yl)ethyl)-5′-methyl-2′-(prop-1-en-2-yl)-1′,2′,3′,4′-tetrahydro-[1,1′-biphenyl]-2,6-diol]",IC50,"BV-2 cellular viability; Mus musculus, BV-2 cells, read-out: Cellular toxicity (IC50 inhibiting BV-2 cellular viability)",57.8 ± 7.6 µM
same,fold less cytotoxicity compared to CBD,BV-2 cellular viability; vs CBD,6.8 fold
same,body weights,[1],did not change
same,ΔTm at 50 µM,[2],3.9 ± 1.3 °C
same,stoichiometry of CIAC001-PKM2 interaction,PKM2 protein,0.54±0.07
same,Kd,"PKM2 protein; intrinsic fluorescence quenching, read-out: dissociation constant KD",2.2 ± 0.2 µM
same,CB1 receptor activity,CB1 Receptor,no apparent CB1/CB2 activity
same,CB2 receptor activity,CB2 Receptor,no apparent CB1/CB2 activity
same,"Alzheimer's disease induced anxiety (arm entry activity, grid traversal)",[3],restored arm entry activity and grid traversal
same,binding of Compound 19e to PKM2 in presence of free CIAC001,PKM2; high concentrations of free CIAC001,competitively inhibited
same,binding with PKM (PKM2 vs PKM1) in situ and in vitro,"PKM2; pull-down, western blot, BV-2",directly binds with PKM2 rather than PKM1
